ChEMBL document CHEMBL1152350, “Identification of compounds exhibiting inhibitory activity toward the Pseudomonas tolaasii toxin tolaasin I using in silico docking calculations, NMR binding assays, and in vitro hemolytic activity assays” (Bioorg Med Chem Lett, 2009)
The source made the active and inactive calls. No cut-off for these calls is given here.

Key:
Pseudomonas tolaasii [1] = assay: Binding affinity to Pseudomonas tolaasii tolaasin 1 at 1 mM by NMR spectroscopy
Pseudomonas tolaasii [2] = assay: Suppression of Pseudomonas tolaasii tolaasin 1-induced hemolysis in rat erythrocytes; assay type: cell-based
Pseudomonas tolaasii [3] = assay: Suppression of Pseudomonas tolaasii tolaasin 1-induced hemolysis in rat erythrocytes at 10 to 100 uM; assay type: cell-based
Pseudomonas tolaasii [4] = assay: Suppression of Pseudomonas tolaasii tolaasin 1-induced hemolysis in rat erythrocytes at >1 mM; assay type: cell-based

Activity (Pseudomonas tolaasii [1])	SMILES	Activity (Pseudomonas tolaasii [2])	Activity (Pseudomonas tolaasii [3])	Activity (Pseudomonas tolaasii [4])
inactive	Cc1[nH]c(=N)sc1C	inactive	–	–
Active	CCCCCCCC/C=C\CCCCCCCC(=O)OC[C@@H](O)[C@@H](O)[C@H](O)[C@@H](O)CO	–	40%	inactive
